{"source": "patent US20140135319A1", "about": "“6-SUBSTITUTED IMIDAZOPYRAZINES FOR USE AS MPS-1 AND TKK INHIBITORS IN THE TREATMENT OF HYPERPROLIFERATIVE DISORDERS” (BAYER INTELLECTUAL PROPERTY GMBH, priority 2010, published 2014)", "data": [{"molecular_target": "T1, human kinase Mps-1 (Homo sapiens, UniProt P33981)", "T1 construct": "N-terminally GST-tagged human full length recombinant Mps-1 kinase; GST (N); purchased Invitrogen, Karslruhe, Germany PV4071", "T1 sequence (P33981 1-857)": "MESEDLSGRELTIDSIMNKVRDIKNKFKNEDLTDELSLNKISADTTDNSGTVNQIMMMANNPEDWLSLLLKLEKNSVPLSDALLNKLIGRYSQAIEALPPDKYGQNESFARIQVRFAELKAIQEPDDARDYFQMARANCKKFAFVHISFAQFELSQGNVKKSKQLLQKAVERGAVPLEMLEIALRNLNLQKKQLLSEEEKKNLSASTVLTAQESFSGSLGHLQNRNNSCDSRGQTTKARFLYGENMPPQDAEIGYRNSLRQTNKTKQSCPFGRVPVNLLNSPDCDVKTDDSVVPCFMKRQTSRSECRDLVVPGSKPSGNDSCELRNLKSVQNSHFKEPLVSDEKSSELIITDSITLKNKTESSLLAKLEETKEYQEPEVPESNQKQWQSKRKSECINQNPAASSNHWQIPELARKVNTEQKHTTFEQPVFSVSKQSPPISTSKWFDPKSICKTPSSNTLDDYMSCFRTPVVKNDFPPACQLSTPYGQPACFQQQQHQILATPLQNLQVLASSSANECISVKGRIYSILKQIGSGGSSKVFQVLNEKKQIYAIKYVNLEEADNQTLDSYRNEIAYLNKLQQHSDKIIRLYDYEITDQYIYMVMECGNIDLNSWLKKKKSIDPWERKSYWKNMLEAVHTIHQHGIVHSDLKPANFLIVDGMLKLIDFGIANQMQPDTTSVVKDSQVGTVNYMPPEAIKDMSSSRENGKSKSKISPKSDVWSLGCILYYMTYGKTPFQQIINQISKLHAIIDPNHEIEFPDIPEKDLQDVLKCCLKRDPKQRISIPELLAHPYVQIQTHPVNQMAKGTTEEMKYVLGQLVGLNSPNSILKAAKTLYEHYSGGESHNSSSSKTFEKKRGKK", "assay": "Mps-1 kinase assay (TR-FRET)", "format": "biochemical", "conditions": "GST-tagged human full length recombinant Mps-1; 10 μM ATP; 1 μM peptide substrate; 60 min at 22° C.", "procedure,_shortened": "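TR-FRET read-out: after 1 h binding at 22° C, Eu-labelled anti-phospho-Ser/Thr antibody transfers to SA-XLent on the phosphorylated biotinylated peptide. The enzyme is GST-tagged full-length human Mps-1, typically about 1 nM final, in the linear range.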", "units": {"IC50": "nM"}, "values": [{"smiles": "O=C(NC1CC1)c1ccc(-c2cnc3c(NCCCN4CCOCC4)nc(-c4ccncc4)cn23)cc1", "note": "[Example 3-5, N-cyclopropyl-4-[8-{[3-(morpholin-4-yl)propyl]amino}-6-(pyridin-4-yl)imidazo[1,2-a]pyrazin-3-yl]benzamide]", "IC50": 214}, {"smiles": "O=C(NC1CC1)c1ccc(-c2cnc3c(NCC(O)C(F)(F)F)nc(-c4ccncc4)cn23)cc1", "note": "(stereo not shown) [Example 3-21, N-cyclopropyl-4-{6-(pyridin-4-yl)-8-[(3,3,3-tri-fluoro-2-hydroxypropyl)amino]imidazo[1,2-a]pyrazin-3-yl}benzamide]", "IC50": 1.6}, {"smiles": "Cc1cc(-c2cnc3c(NCCCC(C)O)nc(C4=CCOCC4)cn23)ccc1C(=O)NC1CC1", "note": "(stereo not shown) [Example 6-12, N-cyclopropyl-4-{6-(3,6-dihydro-2H-pyran-4-yl)-8-[(4-hydroxypentyl)amino]imidazo[1,2-a]pyrazin-3-yl}-2-methylbenzamide]", "IC50": 28}, {"smiles": "Cc1cc(-c2cnc3c(NCCC(C)CO)nc(C4=CCOCC4)cn23)ccc1C(=O)NC1CC1", "note": "(stereo not shown) [Example 6-6, N-cyclopropyl-4-{6-(3,6-dihydro-2H-pyran-4-yl)-8-[(4-hydroxy-3-methylbutyl)amino]imidazo[1,2-a]pyrazin-3-yl}-2-methylbenzamide]", "IC50": 20.6}, {"smiles": "CC(C)CNc1nc(-c2ccc3nccn3c2)cn2c(-c3ccc(C(=O)NC4CC4)cc3)cnc12", "note": "[Example 1-19, N-cyclopropyl-4-{6-(imidazo[1,2-a]pyridin-6-yl)-8-[(2-methylpropyl)amino]imidazo[1,2-a]pyrazin-3-yl}benzamide]", "IC50": 2.2}, {"smiles": "CC(C)CNc1nc(CCC(C)(C)O)cn2c(-c3ccc(C(=O)NC4CC4)cc3)cnc12", "note": "[Example 7-1, N-cyclopropyl-4-{6-(3-hydroxy-3-methylbutyl)-8-[(2-methylpropyl)amino]imidazo[1,2-a]pyrazin-3-yl}benzamide]", "IC50": 6.9}, {"smiles": "O=C(NC1CC1)c1ccc(-c2cnc3c(NCc4ccccc4)nc(-c4ccncc4)cn23)cc1", "note": "[Example 3-12, 4-[8-(benzylamino)-6-(pyridin-4-yl)imidazo [1,2-a]pyrazin-3-yl]-N-cyclopropylbenzamide]", "IC50": 2.3}, {"smiles": "CC(C)CNc1nc(-c2ccc(F)nc2)cn2c(-c3ccc(C(=O)NC4CC4)cc3)cnc12", "note": "[Example 1-5, N-cyclopropyl-4-{6-(6-fluoropyridin-3-yl)-8-[(2-methylpropyl)amino]imidazo[1,2-a]pyrazin-3-yl}benzamide]", "IC50": 4.2}, {"smiles": "CC(C)CNc1nc(CCCO)cn2c(-c3ccc(C(=O)NC4CC4)cc3)cnc12", "note": "[Example 7-3, N-cyclopropyl-4-{6-(3-hydroxypropyl)-8-[(2-methylpropyl)amino]imidazo[1,2-a]pyrazin-3-yl}benzamide]", "IC50": 7.2}, {"smiles": "Cc1cc(-c2cnc3c(NCCC(F)(F)F)nc(-c4cnn(C)c4)cn23)ccc1C(=O)NC1CC1", "note": "[Example 1-69, N-cyclopropyl-2-methyl-4-{6-(1-methyl-1H-pyrazol-4-yl)-8-[(3,3,3-trifluoropropyl)amino]imidazo[1,2-a]pyrazin-3-yl}benzamide]", "IC50": 3.8}, {"smiles": "Cn1ccc(CNc2nc(-c3cccc(CC(N)=O)c3)cn3c(-c4ccc(C(=O)NC5CC5)cc4)cnc23)n1", "note": "[Example 1-94, 4-(6-[3-(2-Amino-2-oxo-ethyl)phenyl]-8-{[(1-methyl-1H-pyrazol-3-yl)methyl]amino}imidazo[1,2-a]pyrazin-3-yl)-N-cyclopropyl benzamide]", "IC50": 4.9}, {"smiles": "CC(C)CNc1nc(-c2ccccc2)cn2c(-c3ccc(C(=O)NC4(C)CC4)cc3)cnc12", "note": "[Example 2-3, N-(1-methylcyclopropyl)-4-{8-[(2-methylpropyl)amino]-6-phenylimidazo [1,2-a]pyrazin-3-yl}benzamide]", "IC50": 208}, {"smiles": "CS(=O)(=O)CCCNc1nc(-c2ccncc2)cn2c(-c3ccc(C(=O)NC4CC4)cc3)cnc12", "note": "[Example 3-32, N-cyclopropyl-4-[8-{[3-(methylsulfonyl)propyl]amino}-6-(pyridin-4-yl)imidazo[1,2-a]pyrazin-3-yl]benzamide]", "IC50": 21.5}, {"smiles": "CC(C)CNc1nc(C(N)=O)cn2c(-c3ccc(C(=O)NC4CC4)cc3)cnc12", "note": "[Example 14-1, 3-[4-(cyclopropylcarbamoyl)phenyl]-8-[(2-methylpropyl)amino]imidazo[1,2-a]pyrazine-6-carboxamide]", "IC50": 9.9}, {"smiles": "CC(C)CNc1nc(-c2ccn[nH]2)cn2c(-c3ccc(C(=O)NC4CC4)c(Cl)c3)cnc12", "note": "[Example 1-34, 2-chloro-N-cyclopropyl-4-{8-[(2-methylpropyl)amino]-6-(1H-pyrazol-5-yl)imidazo[1,2-a]pyrazin-3-yl}benzamide]", "IC50": 35.7}, {"smiles": "O=C(NC1CC1)c1ccc(-c2cnc3c(NCCCn4ccnc4)nc(-c4ccncc4)cn23)cc1", "note": "[Example 3-16, N-cyclopropyl-4-[8-{[3-(1H-imidazol-1-yl)propyl]amino}-6-(pyridin-4-yl)imidazo[1,2-a]pyrazin-3-yl]benzamide]", "IC50": 12.9}, {"smiles": "CC(C)CNc1nc(C2CCOCC2)cn2c(-c3ccc(C(=O)NC4CC4)cc3)cnc12", "note": "[Example 7-4, N-cyclopropyl-4-{8-[(2-methylpropyl)amino]-6-(tetrahydro-2H-pyran-4-yl)imidazo[1,2-a]pyrazin-3-yl}benzamide]", "IC50": 1.5}, {"smiles": "Cc1cc(-c2cnc3c(NCCC(F)(F)F)nc(CN4CCCCC4)cn23)ccc1C(=O)NC1CC1", "note": "[Example 11-1, N-cyclopropyl-2-methyl-4-{6-(piperidin-1-ylmethyl)-8-[(3,3,3-trifluoropropyl)amino]imidazo[1,2-a]pyrazin-3-yl}benzamide]", "IC50": 140}, {"smiles": "Cc1cc(-c2cnc3c(NCC4CNC(=O)C4)nc(C4=CCOCC4)cn23)ccc1C(=O)NC1CC1", "note": "(stereo not shown) [Example 6-13, N-cyclopropyl-4-[6-(3,6-dihydro-2H-pyran-4-yl)-8-{[(5-oxopyrrolidin-3-yl)methyl]amino}imidazo [1,2-a]pyrazin-3-yl]-2-methylbenzamide]", "IC50": 29.9}, {"smiles": "CC(C)CNc1nc(-c2cc3ccccc3o2)cn2c(-c3ccc(C(=O)NC4CC4)cc3)cnc12", "note": "[Example 1-11, 4-{6-(1-benzofuran-2-yl)-8-[(2-methylpropyl)amino]imidazo[1,2-a]pyrazin-3-yl}-N-cyclo-propylbenzamide]", "IC50": 78.8}, {"smiles": "Cc1cc(-c2cnc3c(NCC(C)C)nc(C4=CCOCC4)cn23)ccc1C(=O)NC1CC1", "note": "[Example 6-5, N-cyclopropyl-4-{6-(3,6-dihydro-2H-pyran-4-y1)-8-[(2-methylpropyl)amino]imidazo[1,2-a]pyrazin-3-yl}-2-methylbenzamide]", "IC50": 9.3}, {"smiles": "CC(C)CNc1nc(C2=CCNCC2)cn2c(-c3ccc(C(=O)NC4CC4)cc3)cnc12", "note": "[Example 1-26, N-cyclopropyl-4-{8-[(2-methylpropyl)amino]-6-(1,2,3,6-tetrahydro-pyridin-4-yl)imidazo [1,2-a]pyrazin-3-yl} benzamide]", "IC50": 2.9}, {"smiles": "Cc1ccc2sc(-c3cn4c(-c5ccc(C(=O)NC6CC6)cc5)cnc4c(NCC(C)C)n3)cc2c1", "note": "[Example 1-16, N-cyclopropyl-4-{6-(5-methyl-1-benzothiophen-2-yl)-8-[(2-methylpropyl)amino]imidazo[1,2-a]pyrazin-3-yl}benzamide]", "IC50": 104}, {"smiles": "Cc1ccc(-c2cn3c(-c4ccc(C(=O)NC5CC5)cc4)cnc3c(NCC(C)C)n2)cn1", "note": "[Example 1-20, N-cyclopropyl-4-{8-[(2-methylpropyl)amino]-6-(6-methylpyridin-3-yl)imidazo[1,2-a]pyrazin-3-yl}benzamide]", "IC50": 2.9}, {"smiles": "CC(C)(O)CNc1nc(-c2ccoc2)cn2c(-c3ccc(C(=O)NC4CC4)c(Cl)c3)cnc12", "note": "[Example 1-41, 2-chloro-N-cyclopropyl-4-{6-(furan-3-yl)-8-[(2-hydroxy-2-methylpropyl)amino]imidazo[1,2-a]pyrazin-3-yl}benzamide]", "IC50": 55.3}, {"smiles": "O=C(NC1CC1)c1ccc(-c2cnc3c(NCC4CCCO4)nc(-c4ccn[nH]4)cn23)cc1F", "note": "(stereo not shown) [Example 1-63, N-cyclopropyl-2-fluoro-4-{6-(1H-pyrazol-5-yl)-8-[(tetrahydrofuran-2-ylmethyl)amino]imidazo [1,2-a]pyrazin-3-yl} benzamide]", "IC50": 95.5}, {"smiles": "N#CCCNc1nc(-c2cccc(CC(N)=O)c2)cn2c(-c3ccc(C(=O)NC4CC4)cc3)cnc12", "note": "[Example 1-86, 4-{6-[3-(2-amino-2-oxo-ethyl)phenyl]-8-[(2-cyano-ethyl)amino]imidazo[1,2-a]pyrazin-3-yl}-N-cyclo-propylbenzamide]", "IC50": 3.9}, {"smiles": "Cn1cc(CNc2nc(-c3ccncc3)cn3c(-c4ccc(C(=O)NC5CC5)cc4)cnc23)cn1", "note": "[Example 3-29, N-cyclopropyl-4-[8-{[(1-methyl-1H-pyrazol-4-yl)methyl]amino}-6-(pyridin-4-yl)imidazo [1,2-a]pyrazin-3-yl] benzamide]", "IC50": 5.6}]}]}
